Reference: patent US20230174484A1, “ANTAGONISTS OF GPR39 PROTEIN” (Oregon Health & Science University, priority 2020, published 2023)

Target: T1, human GPR39 receptor (Homo sapiens, UniProt O43194)
T1 construct: PC3 Cells, Expressing the Endogenous Human GPR39 Receptor; endogenous in cells; host or cells: PC3 (human prostate adenocarcinoma) cells
T1 sequence (O43194 1-453): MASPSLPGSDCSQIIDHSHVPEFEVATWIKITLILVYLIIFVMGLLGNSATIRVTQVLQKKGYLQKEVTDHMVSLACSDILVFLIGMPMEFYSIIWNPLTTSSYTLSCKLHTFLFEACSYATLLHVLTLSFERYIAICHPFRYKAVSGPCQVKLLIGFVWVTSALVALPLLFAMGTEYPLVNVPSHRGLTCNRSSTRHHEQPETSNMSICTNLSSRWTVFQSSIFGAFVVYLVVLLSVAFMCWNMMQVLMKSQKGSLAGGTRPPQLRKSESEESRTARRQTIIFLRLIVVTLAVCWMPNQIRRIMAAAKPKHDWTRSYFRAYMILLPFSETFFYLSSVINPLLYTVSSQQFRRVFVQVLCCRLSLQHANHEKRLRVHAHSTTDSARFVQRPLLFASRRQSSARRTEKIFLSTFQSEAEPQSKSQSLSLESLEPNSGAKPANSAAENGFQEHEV
Assay: Measurement of intracellular calcium response in PC3 cells (FLIPR), antagonism of the C3 agonist response
Assay type: cell-based
Settings: functional pKi (modified Cheng-Prusoff), inhibition of the C3 (TC-G 1008) response at EC90, 30 μM ZnCl2, read-out: fpKi activity
In short: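 Potency was reported as fpKi, converted by modified Cheng-Prusoff from four-parameter IC50 fits against an EC90 C3 agonist challenge. Calcium-6 FLIPR readings used PC3 cells naturally expressing human GPR39, in pH 7.4 HEPES buffer containing 30 μM final ZnCl2. Score bands: +/± <5.2, + 5.2–5.9, ++ 6.0–6.5, +++ 6.6–7.2, ++++ ≥7.3.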

SMILES	Ki
CN1CCN(C(=O)c2ccc(NC(=O)C3CC3)cc2N2CCCCCC2)C(c2ccccn2)C1 (centres unmarked) [Example 74, N-[3-(azepan-1-yl)-4-(4-methyl-2-pyridin-2-ylpiperazine-1-carbonyl)phenyl]cyclopropanecarboxamide]	1.26 to 6.31 µM
CN1CCN(C(=O)c2ccc(NC(=O)C3CC3)cc2N2CCCCCC2)C(C(F)(F)F)C1 (centres unmarked) [Example 75, N-[3-(azepan-1-yl)-4-[4-methyl-2-(trifluoromethyl)piperazine-1-carbonyl]phenyl]Cyclopropanecarboxamide]	0.316 to 1 µM
CN1CCN(C(=O)c2ccc(NC(=O)C3CC3)cc2N2CCCCCC2)C(Cc2ccccc2)C1 (centres unmarked) [Example 76, N-[3-(azepan-1-yl)-4-(2-benzyl-4-methylpiperazine-1-carbonyl)phenyl]Cyclopropanecarboxamide]	0.0631 to 0.251 µM
CN1CCN(C(=O)c2ccc(NC(=O)C3CC3)cc2N2CCCCCC2)C(CO)C1 (centres unmarked) [Example 77, N-[3-(azepan-1-yl)-4-[2-(hydroxymethyl)-4-methylpiperazine-1-carbonyl]phenyl]cyclopropanecarboxamide]	1.26 to 6.31 µM
CC(C)C1CN(C)CCN1C(=O)c1ccc(NC(=O)C2CC2)cc1N1CCCCCC1 (centres unmarked) [Example 79, N-[3-(azepan-1-yl)-4-(4-methyl-2-propan-2-ylpiperazine-1-carbonyl)phenyl]Cyclopropanecarboxamide]	1.26 to 6.31 µM
Cc1noc(C)c1CN1CCN(C(=O)c2ccc(NC(=O)C3CC3)cc2N2CCCCCC2)C(c2ccccc2)C1 (centres unmarked) [Example 81, N-[3-(azepan-1-yl)-4-[4-[(3,5-dimethyl-1,2-oxazol-4-yl)methyl]-2-phenylpiperazine-1-carbonyl]phenyl]cyclopropanecarboxamide]	0.316 to 1 µM
O=C(Nc1ccc(C(=O)N2CCN(Cc3ccon3)CC2c2ccccc2)c(N2CCCCCC2)c1)C1CC1 (centres unmarked) [Example 82, N-[3-(azepan-1-yl)-4-[4-(1,2-oxazol-3-ylmethyl)-2-phenylpiperazine-1-carbonyl]phenyl]Cyclopropanecarboxamide]	≤ 0.0501 µM
O=C(Nc1ccc(C(=O)N2CCN(Cc3ncco3)CC2c2ccccc2)c(N2CCCCCC2)c1)C1CC1 (centres unmarked) [Example 83, N-[3-(azepan-1-yl)-4-[4-(1,3-oxazol-2-ylmethyl)-2-phenylpiperazine-1-carbonyl]phenyl]cyclopropanecarboxamide]	0.0631 to 0.251 µM
CCCN1CCN(C(=O)c2ccc(NC(=O)C3CCC3)cc2N2CCCCCC2)CC1 [Example 90, N-(3-(azepan-1-yl)-4-(4-propylpiperazine-1-carbonyl)phenyl)cyclobutanecarboxamide]	1.26 to 6.31 µM
CCCN1CCN(C(=O)c2ccc(NC(=O)c3ccccc3)cc2N2CCCCCC2)CC1 [Example 91, N-(3-(azepan-1-yl)-4-(4-propylpiperazine-1-carbonyl)phenyl)benzamide]	1.26 to 6.31 µM
CCCN1CCN(C(=O)c2ccc(NC(=O)C3CC3(F)F)cc2N2CCCCCC2)CC1 (centres unmarked) [Example 92]	0.316 to 1 µM
CCCN1CCN(C(=O)c2ccc(NC(=O)C(C)C)cc2N2CCCCCC2)CC1 [Example 93, N-(3-(azepan-1-yl)-4-(4-propylpiperazine-1-carbonyl)phenyl)isobutyramide]	0.316 to 1 µM
CCCN1CCN(C(=O)c2ccc(NC(=O)CC)cc2N2CCCCCC2)CC1 [Example 94, N-(3-(azepan-1-yl)-4-(4-propylpiperazine-1-carbonyl)phenyl)propionamide]	0.316 to 1 µM
CCCN1CCN(C(=O)c2ccc(NC(C)=O)cc2N2CCCCCC2)CC1 [Example 95, N-(3-(azepan-1-yl)-4-(4-propylpiperazine-1-carbonyl)phenyl)acetamide]	1.26 to 6.31 µM
CCCN1CCN(C(=O)c2ccc(NC(N)=O)cc2N2CCCCCC2)CC1 [Example 96, [3-(azepan-1-yl)-4-(4-propylpiperazine-1-carbonyl)phenyl]urea]	1.26 to 6.31 µM
CCCN1CCN(C(=O)c2ccc(Nc3nnc(C4CC4)[nH]3)cc2N2CCCCCC2)CC1 [Example 98]	1.26 to 6.31 µM
CN1CCn2c(cnc2-c2ccc(NC(=O)C3CC3)cc2N2CCCCCC2)C1 [Example 102, N-[3-(azepan-1-yl)-4-{7-methyl-5H,6H,7H,8H-imidazo[1,5-a]pyrazin-3-yl}phenyl]cyclopropanecarboxamide]	0.0631 to 0.251 µM
CN1CCn2c(cnc2-c2ccc(NC(=O)C3CC3)cc2N2CCCC2)C1 [Example 103, N-[4-(7-methyl-6,8-dihydro-5H-imidazo[1,5-a]pyrazin-3-yl)-3-pyrrolidin-1-ylphenyl]cyclopropanecarboxamide]	0.316 to 1 µM

SMILES	Ki
C[C@@H]1C[C@H](C)CN(c2cc(NC(=O)C3CC3)ccc2-c2ncc3n2CCN(C)C3)C1 [Example 104b, N-[3-(3,5-dimethylpiperidin-1-yl)-4-(7-methyl-6,8-dihydro-5H-imidazo[1,5-a]pyrazin-3-yl)phenyl] cyclopropanecarboxamide]	0.0631 to 0.251 µM
CCCN1CCn2c(cnc2-c2ccc(NC(=O)C3CC3)cc2N2CCCCCC2)C1 [Example 105, N-[3-(azepan-1-yl)-4-(7-propyl-6,8-dihydro-5H-imidazo[1,5-a]pyrazin-3-yl)phenyl]cyclopropanecarboxamide]	0.0631 to 0.251 µM
CCCN1CCN(C(=O)c2ncc(NC(=O)C3CC3)nc2N2CCCCCC2)CC1 [Example 106, N-[6-(azepan-1-yl)-5-(4-propylpiperazine-1-carbonyl)pyrazin-2-yl]Cyclopropanecarboxamide]	1.26 to 6.31 µM
O=C(Nc1ccc(C(=O)N2CCC(C(F)(F)F)CC2)c(N2CCCC2)n1)C1CC1 [Example 107, N-[6-pyrrolidin-1-yl-5-[4-(trifluoromethyl)piperidine-1-carbonyl]pyridin-2-yl]Cyclopropanecarboxamide]	≤ 0.0501 µM
CCCN1CCN(C(=O)c2ccc(NC(=O)C3CC3)nc2N2CCCCCC2)CC1 [Example 108]	0.0631 to 0.251 µM
CSc1nnc(-c2ccc(NC(=O)C3CC3)cc2N2CCCCCC2)n1C [Example 109, N-[3-(azepan-1-yl)-4-(4-methyl-5-methylsulfanyl-1,2,4-triazol-3-yl)phenyl]Cyclopropanecarboxamide]	1.26 to 6.31 µM
Cn1c(Sc2ccccc2)nnc1-c1ccc(NC(=O)C2CC2)cc1N1CCCCCC1 [Example 110, N-[3-(azepan-1-yl)-4-(4-methyl-5-phenylsulfanyl-1,2,4-triazol-3-yl)phenyl]cyclopropanecarboxamide]	0.0631 to 0.251 µM
CN(C)CCSc1nnc(-c2ccc(NC(=O)C3CC3)cc2N2CCCCCC2)n1C [Example 111, N-[3-(azepan-1-yl)-4-[5-[2-(dimethylamino)ethylsulfanyl]-4-methyl-1,2,4-triazol-3-yl]phenyl]Cyclopropanecarboxamide]	1.26 to 6.31 µM
Cn1c(-c2ccccc2)nnc1-c1ccc(NC(=O)C2CC2)cc1N1CCCCCC1 [Example 112, N-[3-(azepan-1-yl)-4-(4-methyl-5-phenyl-1,2,4-triazol-3-yl)phenyl]cyclopropanecarboxamide]	0.316 to 1 µM
Cc1nnc(-c2ccc(NC(=O)C3CC3)cc2N2CCCCCC2)n1C [Example 113, N-[3-(azepan-1-yl)-4-(4,5-dimethyl-1,2,4-triazol-3-yl)phenyl]cyclopropanecarboxamide]	1.26 to 6.31 µM
C[C@@H]1C[C@H](C)CN(c2cc(NC(=O)C3CC3)ccc2-c2nnc(Sc3ccccc3)n2C)C1 [Example 114b, N-[3-(3,5-dimethylpiperidin-1-yl)-4-(4-methyl-5-phenylsulfanyl-1,2,4-triazol-3-yl)phenyl]cyclopropanecarboxamide]	0.0631 to 0.251 µM
CC1CC(C)CN(c2cc(NC(=O)C3CC3)ccc2-c2nnc(Sc3ccccc3)n2C)C1 (centres unmarked) [Example 114c, N-[3-(3,5-dimethylpiperidin-1-yl)-4-(4-methyl-5-phenylsulfanyl-1,2,4-triazol-3-yl)phenyl]cyclopropanecarboxamide]	0.0631 to 0.251 µM
CC1CC(C)CN(c2cc(NC(=O)C3CC3)ccc2-c2nnc(Sc3ccccc3)n2CCN(C)C)C1 (centres unmarked) [Example 115, N-[4-[4-[2-(dimethylamino)ethyl]-5-phenylsulfanyl-1,2,4-triazol-3-yl]-3-(3,5-dimethylpiperidin-1-yl)phenyl]cyclopropanecarboxamide]	0.316 to 1 µM
Cn1c(Sc2ccccn2)nnc1-c1ccc(NC(=O)C2CC2)cc1N1CCCC1 [Example 116, N-[4-(4-methyl-5-pyridin-2-ylsulfanyl-1,2,4-triazol-3-yl)-3-pyrrolidin-1-ylphenyl]cyclopropanecarboxamide]	1.26 to 6.31 µM
CCCN1CCN(C(=O)c2ccc(-c3nnc(C4CC4)[nH]3)cc2N2CCCCCC2)CC1 [Example 118, [2-(azepan-1-yl)-4-(5-cyclopropyl-4H-1,2,4-triazol-3-yl)phenyl]-(4-propylpiperazin-1-yl)methanone]	0.316 to 1 µM
O=C(Nc1ccc(C(=O)N2CCS(=O)(=O)CC2)c(N2CCC3(CCC3)C2)n1)C1CC1 [Example 143, N-[6-(6-azaspiro[3.4]octan-6-yl)-5-(1,1-dioxo-1,4-thiazinane-4-carbonyl)pyridin-2-yl]cyclopropanecarboxamide]	≤ 0.0501 µM
Cc1noc(-c2ccc(C(=O)N3CCC(C(F)(F)F)CC3)c(N3CCCC3)c2)n1 [Example 152, [4-(3-methyl-1,2,4-oxadiazol-5-yl)-2-pyrrolidin-1-ylphenyl]-[4-(trifluoromethyl)piperidin-1-yl]methanone]	0.316 to 1 µM
